# Reference: ChEMBL document CHEMBL3885881, “DrugMatrix”
# Organism: Rattus norvegicus
# Assay: DrugMatrix - Regimen: Daily Repeat
# Type: toxicity, organism-based, Sprague-Dawley
# Parameters: regimen Daily Repeat, gender Male, age 6-8 weeks
# Conditions: in vivo, po, route oral GAVAGE, vehicle .5 % CMC; for ABSOLUTE BASOPHIL / ABSOLUTE EOSINOPHIL / ABSOLUTE LYMPHOCYTE / ABSOLUTE MONOCYTE / ABSOLUTE SEGMENTED NEUTROPHIL / BASOPHIL / EOSINOPHIL / ERYTHROCYTE COUNT / HEMATOCRIT / HEMOGLOBIN / LEUKOCYTE COUNT / LYMPHOCYTE / MEAN CORPUSCULAR HEMOGLOBIN / MEAN CORPUSCULAR HEMOGLOBIN CONCENTRATION / MEAN CORPUSCULAR VOLUME / MONOCYTE / NEUTROPHIL / NUCLEATED RED BLOOD CELLS / PLATELET COUNT: tissue Blood; for ALANINE AMINOTRANSFERASE / ALBUMIN / ALKALINE PHOSPHATASE / ASPARTATE AMINOTRANSFERASE / BLOOD UREA NITROGEN / CARBON DIOXIDE / CHLORIDE / CHOLESTEROL / CREATINE PHOSPHOKINASE / CREATININE / GLUCOSE / LACTATE DEHYDROGENASE / LIPASE / PHOSPHORUS / POTASSIUM / SODIUM / TOTAL BILIRUBIN / TOTAL PROTEIN / URIC ACID: tissue Plasma
# [1] = 0 mg/kg, 72 h, dose level Control, time 3 day
# [2] = 0 mg/kg, 120 h, dose level Control, time 5 day
# [3] = 59 mg/kg, 72 h, dose level Low, time 3 day
# [4] = 59 mg/kg, 120 h, dose level Low, time 5 day
structure (smiles),measurement,setting,value
Cc1c(-c2ccccc2)oc2c(C(=O)OCCN3CCCCC3)cccc2c1=O [FLAVOXATE],ABSOLUTE BASOPHIL,[1],0 CELLS/uL
same,ABSOLUTE EOSINOPHIL,[1],32.5 CELLS/uL
same,ABSOLUTE LYMPHOCYTE,[1],13494.17 CELLS/uL
same,ABSOLUTE MONOCYTE,[1],474 CELLS/uL
same,ABSOLUTE SEGMENTED NEUTROPHIL,[1],1932.67 CELLS/uL
same,BASOPHIL,[1],0%
same,EOSINOPHIL,[1],0.17%
same,ERYTHROCYTE COUNT,[1],5.45 x10E6/uL
same,HEMATOCRIT,[1],34.32%
same,HEMOGLOBIN,[1],13.82 G/DL
same,LEUKOCYTE COUNT,[1],15.93 x10E3/uL
same,LYMPHOCYTE,[1],84.83%
same,MEAN CORPUSCULAR HEMOGLOBIN,[1],25.38 pg
same,MEAN CORPUSCULAR HEMOGLOBIN CONCENTRATION,[1],40.27 G/DL
same,MEAN CORPUSCULAR VOLUME,[1],63.05 fL
same,MONOCYTE,[1],3%
same,NEUTROPHIL,[1],12%
same,NUCLEATED RED BLOOD CELLS,[1],0.67 /100WBC
same,PLATELET COUNT,[1],1188.5 x10E3/uL
same,ALANINE AMINOTRANSFERASE,[1],54.83 u/L
same,ALBUMIN,[1],4.22 G/DL
same,ALKALINE PHOSPHATASE,[1],427.67 u/L
same,ASPARTATE AMINOTRANSFERASE,[1],86.5 u/L
same,BLOOD UREA NITROGEN,[1],15.33 mg/dL
same,CARBON DIOXIDE,[1],24.83 mmol/L
same,CHLORIDE,[1],102.33 MEQ/L
same,CHOLESTEROL,[1],71.67 mg/dL
same,CREATINE PHOSPHOKINASE,[1],442.5 u/L
same,CREATININE,[1],0.19 mg/dL
same,GLUCOSE,[1],160.67 mg/dL
same,LACTATE DEHYDROGENASE,[1],236.5 u/L
same,LIPASE,[1],9 u/L
same,PHOSPHORUS,[1],11.97 mg/dL
same,POTASSIUM,[1],6.2 MEQ/L
same,SODIUM,[1],142.85 MEQ/L
same,TOTAL BILIRUBIN,[1],0.2 mg/dL
same,TOTAL PROTEIN,[1],5.8 G/DL
same,URIC ACID,[1],1.3 mg/dL
same,ABSOLUTE BASOPHIL,[2],0 CELLS/uL
same,ABSOLUTE EOSINOPHIL,[2],114.5 CELLS/uL
same,ABSOLUTE LYMPHOCYTE,[2],14614 CELLS/uL
same,ABSOLUTE MONOCYTE,[2],173 CELLS/uL
same,ABSOLUTE SEGMENTED NEUTROPHIL,[2],1048.5 CELLS/uL
same,BASOPHIL,[2],0%
same,EOSINOPHIL,[2],0.67%
same,ERYTHROCYTE COUNT,[2],5.66 x10E6/uL
same,HEMATOCRIT,[2],35.52%
same,HEMOGLOBIN,[2],14.27 G/DL
same,LEUKOCYTE COUNT,[2],15.95 x10E3/uL
same,LYMPHOCYTE,[2],91.33%
same,MEAN CORPUSCULAR HEMOGLOBIN,[2],25.23 pg
same,MEAN CORPUSCULAR HEMOGLOBIN CONCENTRATION,[2],40.2 G/DL
same,MEAN CORPUSCULAR VOLUME,[2],62.7 fL
same,MONOCYTE,[2],1.17%
same,NEUTROPHIL,[2],6.83%
same,NUCLEATED RED BLOOD CELLS,[2],0.33 /100WBC
same,PLATELET COUNT,[2],1229 x10E3/uL
same,ALANINE AMINOTRANSFERASE,[2],58.67 u/L
same,ALBUMIN,[2],4.32 G/DL
same,ALKALINE PHOSPHATASE,[2],382.5 u/L
same,ASPARTATE AMINOTRANSFERASE,[2],81.67 u/L
same,BLOOD UREA NITROGEN,[2],17.67 mg/dL
same,CARBON DIOXIDE,[2],27.17 mmol/L
same,CHLORIDE,[2],102.33 MEQ/L
same,CHOLESTEROL,[2],63.67 mg/dL
same,CREATINE PHOSPHOKINASE,[2],227.67 u/L
same,CREATININE,[2],0.23 mg/dL
same,GLUCOSE,[2],155.33 mg/dL
same,LACTATE DEHYDROGENASE,[2],146.5 u/L
same,LIPASE,[2],10.67 u/L
same,PHOSPHORUS,[2],11.93 mg/dL
same,POTASSIUM,[2],6.85 MEQ/L
same,SODIUM,[2],143.95 MEQ/L
same,TOTAL BILIRUBIN,[2],0.18 mg/dL
same,TOTAL PROTEIN,[2],6.02 G/DL
same,URIC ACID,[2],1.63 mg/dL
same,ABSOLUTE BASOPHIL,[3],0 CELLS/uL
same,ABSOLUTE EOSINOPHIL,[3],0 CELLS/uL
same,ABSOLUTE LYMPHOCYTE,[3],10292.33 CELLS/uL
same,ABSOLUTE MONOCYTE,[3],303.67 CELLS/uL
same,ABSOLUTE SEGMENTED NEUTROPHIL,[3],1637.33 CELLS/uL
same,BASOPHIL,[3],0%
same,EOSINOPHIL,[3],0%
same,ERYTHROCYTE COUNT,[3],5.31 x10E6/uL
same,HEMATOCRIT,[3],32.77%
same,HEMOGLOBIN,[3],12.9 G/DL
same,LEUKOCYTE COUNT,[3],12.23 x10E3/uL
same,LYMPHOCYTE,[3],84%
same,MEAN CORPUSCULAR HEMOGLOBIN,[3],24.3 pg
same,MEAN CORPUSCULAR HEMOGLOBIN CONCENTRATION,[3],39.4 G/DL
same,MEAN CORPUSCULAR VOLUME,[3],61.7 fL
same,MONOCYTE,[3],2.67%
same,NEUTROPHIL,[3],13.33%
same,NUCLEATED RED BLOOD CELLS,[3],0.33 /100WBC
same,PLATELET COUNT,[3],1448 x10E3/uL
same,ALANINE AMINOTRANSFERASE,[3],51.33 u/L
same,ALBUMIN,[3],4.17 G/DL
same,ALKALINE PHOSPHATASE,[3],336.67 u/L
same,ASPARTATE AMINOTRANSFERASE,[3],71.67 u/L
same,BLOOD UREA NITROGEN,[3],15 mg/dL
same,CARBON DIOXIDE,[3],24.33 mmol/L
same,CHLORIDE,[3],101.67 MEQ/L
same,CHOLESTEROL,[3],85.67 mg/dL
same,CREATINE PHOSPHOKINASE,[3],168.33 u/L
same,CREATININE,[3],0.14 mg/dL
same,GLUCOSE,[3],167.33 mg/dL
same,LACTATE DEHYDROGENASE,[3],73.67 u/L
same,LIPASE,[3],9.67 u/L
same,PHOSPHORUS,[3],13.13 mg/dL
same,POTASSIUM,[3],6.68 MEQ/L
same,SODIUM,[3],144.33 MEQ/L
same,TOTAL BILIRUBIN,[3],0.2 mg/dL
same,TOTAL PROTEIN,[3],5.6 G/DL
same,URIC ACID,[3],1.77 mg/dL
same,ABSOLUTE BASOPHIL,[4],0 CELLS/uL
same,ABSOLUTE EOSINOPHIL,[4],0 CELLS/uL
same,ABSOLUTE LYMPHOCYTE,[4],14413.67 CELLS/uL
same,ABSOLUTE MONOCYTE,[4],41.67 CELLS/uL
same,ABSOLUTE SEGMENTED NEUTROPHIL,[4],1278 CELLS/uL
same,BASOPHIL,[4],0%
same,EOSINOPHIL,[4],0%
same,ERYTHROCYTE COUNT,[4],5.45 x10E6/uL
same,HEMATOCRIT,[4],34.03%
same,HEMOGLOBIN,[4],13.93 G/DL
same,LEUKOCYTE COUNT,[4],15.73 x10E3/uL
same,LYMPHOCYTE,[4],92%
same,MEAN CORPUSCULAR HEMOGLOBIN,[4],25.57 pg
same,MEAN CORPUSCULAR HEMOGLOBIN CONCENTRATION,[4],40.93 G/DL
same,MEAN CORPUSCULAR VOLUME,[4],62.5 fL
same,MONOCYTE,[4],0.33%
same,NEUTROPHIL,[4],7.67%
same,NUCLEATED RED BLOOD CELLS,[4],0 /100WBC
same,PLATELET COUNT,[4],1355 x10E3/uL
same,ALANINE AMINOTRANSFERASE,[4],45.67 u/L
same,ALBUMIN,[4],4.07 G/DL
same,ALKALINE PHOSPHATASE,[4],365.33 u/L
same,ASPARTATE AMINOTRANSFERASE,[4],71.33 u/L
same,BLOOD UREA NITROGEN,[4],16 mg/dL
same,CARBON DIOXIDE,[4],25 mmol/L
same,CHLORIDE,[4],103.33 MEQ/L
same,CHOLESTEROL,[4],77 mg/dL
same,CREATINE PHOSPHOKINASE,[4],183.67 u/L
same,CREATININE,[4],0.19 mg/dL
same,GLUCOSE,[4],155.67 mg/dL
same,LACTATE DEHYDROGENASE,[4],161.33 u/L
same,LIPASE,[4],9.67 u/L
same,PHOSPHORUS,[4],12.93 mg/dL
same,POTASSIUM,[4],6.66 MEQ/L
same,SODIUM,[4],145.6 MEQ/L
same,TOTAL BILIRUBIN,[4],0.17 mg/dL
same,TOTAL PROTEIN,[4],5.8 G/DL
same,URIC ACID,[4],1.4 mg/dL
